Test results published in patent US12275712B2, “Triterpene derivatives as HIV inhibitors” (HETERO LABS LIMITED, priority 2019, dated 2025).

Experiments:
pNL4-3 WT = assay: Antiviral activity against pNL4-3 WT strain in MT4 cells (p24 estimation); assay type: cell-based, HIV-1; conditions: Human immunodeficiency virus 1, MT4, 96 h, read-out: pNL4-3 WT IC50
Protocol: (§1) MT4 cells were Transfected with HIV-1 Plasmid (pNL4-3-WT & V7A) (Cells were incubating with required number of TCID50 of HIV-1 for 1.5 h at 37° C.). After infection, the infected cells were plated at the concentration of 3×10^4 cells per well in 96 well plate. Test compound was added to the test plate in defined format with the final concentration of DMSO is not more than 1%. Incubation was carried out in CO2 incubator for 4 days for viral infection. At the end of incubation period an aliquot from each well was taken for p24 estimation. p24 estimation was carried out using Advance biosciences kit as per the procedure detailed by supplier.

pNL4-3 V7A = assay: Antiviral activity against pNL4-3 V7A strain in MT4 cells (p24 estimation); assay type: cell-based, HIV-1; conditions: Human immunodeficiency virus 1, MT4, 96 h, read-out: pNL4-3 V7A IC50
Protocol: as §1

HIV-1 strain 92HT599 = assay: Antiviral activity against HIV-1 strain 92HT599 in MT2 cells (p24 estimation); assay type: cell-based; conditions: Human immunodeficiency virus 1; HIV-1 strain 92HT599, MT2 cells, ~96 hours, p24; read-out: IC50
Protocol: MT2 cells were infected with HIV-1 strain 92HT599 (10 TCID 50/30000 cells). The infected cells were plated at the concentration of ˜30,000 cells per well in 96 well plate. Test compound was added to the micro plate in defined format with the final concentration of DMSO (vehicle) is not more than 1%. Incubation was carried out in CO2 incubator for ˜96 hours for viral infection. At the end of incubation period an aliquot from each well was taken for p24 estimation. The quantitation of p24 is an index for antiviral activity of the compound. Percent inhibition was calculated with reference to control values (vehicle controls). p24 estimation was carried out using Advance biosciences kit as per the procedure detailed by supplier.
The IC50 (nM) values are set forth in below Table-1.

Compound: CC1([C@@H]2CC[C@]3(NC[C@H](CF)N4CCS(=O)(=O)CC4)CC[C@]4(C)[C@H](CC[C@@H]5[C@@]6(C)CC[C@H](OC(=O)[C@H]7C[C@@H](C(=O)O)C7(C)C)C(C)(C)[C@@H]6CC[C@]54C)[C@@H]23)CC1 [Example 10, (1R,3S)-3-((((1R,3aS,5aR,5bR,7aR,9S,11aR,11bR,13aR,13bR)-3a-(((R)-2-(1,1-dioxidothiomorpholino)-3-fluoropropyl)amino)-5a,5b,8,8,11a-pentamethyl-1-(1-methylcyclopropyl)icosahydro-1H-cyclopenta[a]chrysen-9-yl)oxy)carbonyl)-2,2-dimethyl cyclobutane-1-carboxylic acid]
- IC50 (pNL4-3 WT): < 10 nM
- IC50 (pNL4-3 V7A): 1 to 50 nM
- IC50 (HIV-1 strain 92HT599): < 10 nM

Compound: CC(C)S(=O)(=O)N1CCN([C@@H](C)CN[C@]23CC[C@@H](C4(C)CC4)[C@@H]2[C@H]2CC[C@@H]4[C@@]5(C)CC[C@H](OC(=O)[C@H]6C[C@@H](C(=O)O)C6(C)C)C(C)(C)[C@@H]5CC[C@@]4(C)[C@]2(C)CC3)CC1 [Example 11, (1R,3S)-3-((((1R,3aS,5aR,5bR,7aR,9S,11aR,11bR,13aR,13bR)-3a-(((S)-2-(4-(isopropylsulfonyl)piperazin-1-yl)propyl)amino)-5a,5b,8,8,11a-pentamethyl-1-(1-methylcyclopropyl)icosahydro-1H-cyclopenta[a]chrysen-9-yl)oxy)carbonyl)-2,2-dimethyl cyclobutane-1-carboxylic acid]
- IC50 (pNL4-3 WT): < 10 nM
- IC50 (pNL4-3 V7A): 1 to 50 nM
- IC50 (HIV-1 strain 92HT599): < 10 nM

Compound: C[C@H](F)[C@@H](CN[C@]12CC[C@@H](C3(C)CC3)[C@@H]1[C@H]1CC[C@@H]3[C@@]4(C)CC[C@H](OC(=O)[C@H]5C[C@@H](C(=O)O)C5(C)C)C(C)(C)[C@@H]4CC[C@@]3(C)[C@]1(C)CC2)N1CCS(=O)(=O)CC1 [Example 12, (1R,3S)-3-((((1R,3aS,5aR,5bR,7aR,9S,11aR,11bR,13aR,13bR)-3a-(((2R,3 S)-2-(1,1-dioxidothiomorpholino)-3-fluorobutyl)amino)-5a,5b,8,8,11a-pentamethyl-1-(1-methylcyclopropyl)icosahydro-1H-cyclopentachrysen-9-yl)oxy)carbonyl)-2,2-di methylcyclobutane-1-carboxylic acid]
- IC50 (pNL4-3 WT): 10 to 50 nM
- IC50 (pNL4-3 V7A): > 100 nM
- IC50 (HIV-1 strain 92HT599): > 20 nM

Compound: C[C@H](O)[C@H](CN[C@]12CC[C@@H](C3(C)CC3)[C@@H]1[C@H]1CC[C@@H]3[C@@]4(C)CC[C@H](OC(=O)[C@H]5C[C@@H](C(=O)O)C5(C)C)C(C)(C)[C@@H]4CC[C@@]3(C)[C@]1(C)CC2)N1CCS(=O)(=O)CC1 [Example 13, (1R,3S)-3-((((1R,3aS,5aR,5bR,7aR,9S,11aR,11bR,13aR,13bR)-3a-(((2S,3S)-2-(1,1-dioxidothiomorpholino)-3-hydroxybutyl)amino)-5a,5b,8,8,11a-pentamethyl-1-(1-methylcyclopropyl)icosahydro-1H-cyclopenta[a]chrysen-9-yl)oxy)carbonyl)-2,2-dimethylcyclobutane-1-carboxylic acid]
- IC50 (pNL4-3 WT): < 10 nM
- IC50 (pNL4-3 V7A): 1 to 50 nM
- IC50 (HIV-1 strain 92HT599): < 10 nM

Compound: CC(C)S(=O)(=O)N1CCN([C@H](CN[C@]23CC[C@@H](C4(C)CC4)[C@@H]2[C@H]2CC[C@@H]4[C@@]5(C)CC[C@H](OC(=O)[C@H]6C[C@@H](C(=O)O)C6(C)C)C(C)(C)[C@@H]5CC[C@@]4(C)[C@]2(C)CC3)[C@@H](C)O)CC1 [Example 14, (1R,3S)-3-((((1R,3aS,5aR,5bR,7aR,9S,11aR,11bR,13aR,13bR)-3a-(((2R,3R)-3-hydroxy-2-(4-(isopropylsulfonyl)piperazin-1-yl)butyl)amino)-5a,5b,8,8,11a-pentamethyl-1-(1-methylcyclopropyl)icosahydro-1H-cyclopenta[a]chrysen-9-yl)oxy)carbonyl)-2,2-dimethylcyclobutane-1-carboxylic acid]
- IC50 (pNL4-3 WT): < 10 nM
- IC50 (pNL4-3 V7A): 1 to 50 nM
- IC50 (HIV-1 strain 92HT599): < 10 nM

Compound: C=C(C)[C@@H]1CC[C@]2(NC[C@H]([C@@H](C)O)N3CCS(=O)(=O)CC3)CC[C@]3(C)[C@H](CC[C@@H]4[C@@]5(C)CC[C@H](OC(=O)[C@H]6C[C@@H](C(=O)O)C6(C)C)C(C)(C)[C@@H]5CC[C@]43C)[C@@H]12 [Example 15, (1R,3S)-3-((((1R,3aS,5aR,5bR,7aR,9S,11aR,11bR,13aR,13bR)-3a-(((2R,3R)-2-(1,1-dioxidothiomorpholino)-3-hydroxybutyl)amino)-5a,5b,8,8,11a-pentamethyl-1-(prop-1-en-2-yl)icosahydro-1H-cyclopenta[a]chrysen-9-yl)oxy)carbonyl)-2,2-dimethylcyclobutane-1-carboxylic acid]
- IC50 (pNL4-3 WT): < 10 nM
- IC50 (pNL4-3 V7A): 1 to 50 nM
- IC50 (HIV-1 strain 92HT599): < 10 nM

Compound: CC1([C@@H]2CC[C@]3(NC[C@H](C(=O)O)N4CCS(=O)(=O)CC4)CC[C@]4(C)[C@H](CC[C@@H]5[C@@]6(C)CC[C@H](OC(=O)[C@H]7C[C@@H](C(=O)O)C7(C)C)C(C)(C)[C@@H]6CC[C@]54C)[C@@H]23)CC1 [Example 16, (1R,3S)-3-((((1R,3aS,5aR,5bR,7aR,9S,11aR,11bR,13aR,13bR)-3a-(((R)-2-carboxy-2-(1,1-dioxidothiomorpholino)ethyl)amino)-5a,5b,8,8,11a-pentamethyl-1-(1-methylcyclopropyl)icosahydro-1H-cyclopenta[a]chrysen-9-yl)oxy)carbonyl)-2,2-dimethylcyclobutane-1-carboxylic acid]
- IC50 (pNL4-3 WT): > 50 nM
- IC50 (pNL4-3 V7A): > 100 nM
- IC50 (HIV-1 strain 92HT599): 10 to 20 nM

Compound: COCCOCC(=O)O[C@H](C)[C@@H](CN[C@]12CC[C@@H](C3(C)CC3)[C@@H]1[C@H]1CC[C@@H]3[C@@]4(C)CC[C@H](OC(=O)[C@H]5C[C@@H](C(=O)O)C5(C)C)C(C)(C)[C@@H]4CC[C@@]3(C)[C@]1(C)CC2)N1CCS(=O)(=O)CC1 [Example 17, (1R,3S)-3-((((1R,3aS,5aR,5bR,7aR,9S,11aR,11bR,13aR,13bR)-3a-(((2R,3R)-2-(1,1-dioxidothiomorpholino)-3-(2-(2-methoxyethoxy)acetoxy)butyl)amino)-5a,5b,8,8,11a-pentamethyl-1-(1-methylcyclopropyl)icosahydro-1H-cyclopentachrysen-9-yl)oxy)carbonyl)-2,2-dimethylcyclobutane-1-carboxylic acid]
- IC50 (pNL4-3 WT): < 10 nM
- IC50 (pNL4-3 V7A): 1 to 50 nM
- IC50 (HIV-1 strain 92HT599): < 10 nM

Compound: COCCOCCOCCO[C@H](C)[C@@H](CN[C@]12CC[C@@H](C3(C)CC3)[C@@H]1[C@H]1CC[C@@H]3[C@@]4(C)CC[C@H](OC(=O)[C@H]5C[C@@H](C(=O)O)C5(C)C)C(C)(C)[C@@H]4CC[C@@]3(C)[C@]1(C)CC2)N1CCS(=O)(=O)CC1 [Example 18, (1R,3S)-3-((((1R,3aS,5aR,5bR,7aR,9S,11aR,11bR,13aR,13bR)-3a-(((12R,13R)-13-(1,1-dioxidothiomorpholino)-12-methyl-2,5,8,11-tetraoxatetradecan-14-yl)amino)-5a,5b,8,8,11a-pentamethyl-1-(1-methylcyclopropyl)icosahydro-1H-cyclopenta[a]chrysen-9-yl)oxy)carbonyl)-2,2-dimethylcyclobutane-1-carboxylic acid]
- IC50 (pNL4-3 WT): < 10 nM
- IC50 (pNL4-3 V7A): 1 to 50 nM
- IC50 (HIV-1 strain 92HT599): < 10 nM

Compound: C=C(C)[C@@H]1CC[C@]2(NC[C@H]([C@@H](C)OC(=O)COCCOC)N3CCS(=O)(=O)CC3)CC[C@]3(C)[C@H](CC[C@@H]4[C@@]5(C)CC[C@H](OC(=O)[C@H]6C[C@@H](C(=O)O)C6(C)C)C(C)(C)[C@@H]5CC[C@]43C)[C@@H]12 [Example 19, (1R,3S)-3-((((1R,3aS,5aR,5bR,7aR,9S,11aR,11bR,13aR,13bR)-3a-(((2R,3R)-2-(1,1-dioxidothiomorpholino)-3-(2-(2-methoxyethoxy)acetoxy)butyl)amino)-5a,5b,8,8,11a-pentamethyl-1-(prop-1-en-2-yl)icosahydro-1H-cyclopentachrysen-9-yl)oxy)carbonyl)-2,2-dimethylcyclobutane-1-carboxylic acid]
- IC50 (pNL4-3 WT): < 10 nM
- IC50 (pNL4-3 V7A): 1 to 50 nM
- IC50 (HIV-1 strain 92HT599): < 10 nM

Compound: C=C(C)[C@@H]1CC[C@]2(NC[C@H]([C@@H](C)O)N3CCS(=O)(=O)CC3)CC[C@]3(C)[C@H](CC[C@@H]4[C@@]5(C)CC[C@H](OC(=O)CC(C)(C)C(=O)O)C(C)(C)[C@@H]5CC[C@]43C)[C@@H]12 [Example 20, 4-(((1R,3aS,5aR,5bR,7aR,9S,11aR,11bR,13aR,13bR)-3a-(((2R,3R)-2-(1,1-dioxidothiomorpholino)-3-hydroxybutyl)amino)-5a,5b,8,8,11a-pentamethyl-1-(prop-1-en-2-yl)icosahydro-1H-cyclopentachrysen-9-yl)oxy)-2,2-dimethyl-4-oxobutanoic acid]
- IC50 (pNL4-3 WT): < 10 nM
- IC50 (pNL4-3 V7A): 1 to 50 nM
- IC50 (HIV-1 strain 92HT599): < 10 nM
